Measured values from PubChem BioAssay AID334 (DTP/NCI, 2004).
Several values for one entry are separate records, joined by “and”; a condition that tells them apart may be missing. Identical values can stand only once. Inconclusive results and toxic doses are left out.

Tested on: CD2F1 mice, intracerebral P388 leukemia, median survival T/C%
Assay: NCI In Vivo Anticancer Drug Screen. Data for tumor model P388 Leukemia (intracerebral) in CD2F1 (CDF1) mice
Conditions: endpoint: median survival time, higher = longer survival
Procedure: The antitumor activity of compounds was measured in mice bearing transplantable tumors. Survival or tumor size were measured and the results are expressed as the measurement made in the treated group (T) divided by the measurement made in the vehicle treated control group (C). The tumor model used in this assay is P388 Leukemia (intracerebral) in CD2F1 (CDF1) mice

[1] = dose: 8.0 mg/kg/injection, schedule: Q01DX009 (ip), vehicle: Klucel (hydroxypropylcellulose) (HPC)
[2] = dose: 8.0 mg/kg/injection, schedule: Q01DX009 (ip), vehicle: saline with Tween-80
[3] = dose: 16.0 mg/kg/injection, schedule: Q01DX009 (ip), vehicle: Klucel (hydroxypropylcellulose) (HPC)
[4] = dose: 16.0 mg/kg/injection, schedule: Q01DX009 (ip), vehicle: saline with Tween-80
[5] = dose: 32.0 mg/kg/injection, schedule: Q01DX009 (ip), vehicle: Klucel (hydroxypropylcellulose) (HPC)
[6] = dose: 32.0 mg/kg/injection, schedule: Q01DX009 (ip), vehicle: saline with Tween-80
[7] = dose: 64.0 mg/kg/injection, schedule: Q01DX009 (ip), vehicle: Klucel (hydroxypropylcellulose) (HPC)
[8] = dose: 64.0 mg/kg/injection, schedule: Q01DX009 (ip), vehicle: saline with Tween-80
[9] = dose: 128.0 mg/kg/injection, schedule: Q01DX009 (ip), vehicle: Klucel (hydroxypropylcellulose) (HPC)
[10] = dose: 128.0 mg/kg/injection, schedule: Q01DX009 (ip), vehicle: saline with Tween-80
[11] = dose: 200.0 mg/kg/injection, schedule: Q01DX009 (ip), vehicle: saline

C[C@]12C=CC(=O)C=C1CC[C@@H]1[C@@H]2CC[C@]2(C)OC(=O)CC[C@@H]12
T/C [1]: 105 % of control and 111 % of control
T/C [2]: 95 % of control and 105 % of control
T/C [3]: 100 % of control and 103 % of control
T/C [4]: 104 % of control and 105 % of control
T/C [5]: 114 % of control and 102 % of control
T/C [6]: 97 % of control and 104 % of control
T/C [7]: 100 % of control and 105 % of control
T/C [8]: 97 % of control
T/C [9]: 91 % of control and 111 % of control
T/C [10]: 104 % of control and 112 % of control
T/C (dose: 256.0 mg/kg/injection, schedule: Q01DX009 (ip), vehicle: saline with Tween-80): 121 % of control and 94 % of control

C#C[C@]1(O)CC[C@H]2[C@@H]3CCc4cc(O)ccc4[C@H]3CC[C@@]21C
T/C [1]: 90 % of control and 100 % of control
T/C [3]: 94 % of control and 104 % of control
T/C [4]: 95 % of control
T/C [5]: 100 % of control and 101 % of control
T/C [6]: 100 % of control
T/C [7]: 94 % of control and 100 % of control
T/C [8]: 95 % of control
T/C [9]: 99 % of control and 102 % of control
T/C (dose: 256.0 mg/kg/injection, schedule: Q01DX009 (ip), vehicle: Klucel (hydroxypropylcellulose) (HPC)): 95 % of control and 100 % of control
T/C (dose: 512.0 mg/kg/injection, schedule: Q01DX009 (ip), vehicle: Klucel (hydroxypropylcellulose) (HPC)): 86 % of control and 99 % of control
T/C (dose: 512.0 mg/kg/injection, schedule: Q01DX009 (ip), vehicle: saline with Tween-80): 103 % of control

CC(=O)OCC1C(=O)OCC1C(=O)N1Cc2cc3ccccc3nc2C1 (stereo unspecified)
T/C (dose: 4.0 mg/kg/injection, schedule: Q01DX009 (ip), vehicle: saline with Tween-80): 101 % of control
T/C [2]: 103 % of control
T/C [4]: 96 % of control
T/C [6]: 107 % of control
T/C [8]: 102 % of control
T/C [10]: 96 % of control

O=C1C=C(N2CC2)C(=O)C=C1N1CC1
T/C (dose: 0.12 mg/kg/injection, schedule: Q01DX009 (ip), vehicle: saline): 104 % of control and 105 % of control and 106 % of control
T/C (dose: 0.25 mg/kg/injection, schedule: Q01DX009 (ip), vehicle: saline): 100 % of control and 101 % of control and 105 % of control
T/C (dose: 0.5 mg/kg/injection, schedule: Q01DX009 (ip), vehicle: saline): 105 % of control and 107 % of control and 111 % of control
T/C (dose: 1.0 mg/kg/injection, schedule: Q01DX009 (ip), vehicle: saline): 92 % of control and 93 % of control and 100 % of control

c1ccc([C@H]2CN3CCSC3=N2)cc1
T/C (dose: 5.0 mg/kg/injection, schedule: Q01DX009 (ip), vehicle: saline): 113 % of control and 101 % of control and 102 % of control
T/C (dose: 10.0 mg/kg/injection, schedule: Q01DX005 (ip), vehicle: saline): 105 % of control and 107 % of control
T/C (dose: 10.0 mg/kg/injection, schedule: Q01DX009 (ip), vehicle: saline): 97 % of control and 100 % of control and 106 % of control
T/C (dose: 20.0 mg/kg/injection, schedule: Q01DX005 (ip), vehicle: saline): 98 % of control and 102 % of control
T/C (dose: 20.0 mg/kg/injection, schedule: Q01DX009 (ip), vehicle: saline): 113 % of control and 92 % of control and 103 % of control
T/C (dose: 40.0 mg/kg/injection, schedule: Q01DX005 (ip), vehicle: saline): 97 % of control

Cc1cn(C2CC(O)C(CO)O2)c(=O)[nH]c1=O (stereo unspecified)
T/C (dose: 100.0 mg/kg/injection, schedule: Q01DX009 (ip), vehicle: saline with Tween-80): 98 % of control and 104 % of control
T/C (dose: 100.0 mg/kg/injection, schedule: Q01DX009 (ip), vehicle: saline): 93 % of control and 102 % of control
T/C (dose: 200.0 mg/kg/injection, schedule: Q01DX009 (ip), vehicle: saline with Tween-80): 108 % of control and 109 % of control
T/C [11]: 97 % of control and 109 % of control
T/C (dose: 400.0 mg/kg/injection, schedule: Q01DX009 (ip), vehicle: saline with Tween-80): 101 % of control and 109 % of control
T/C (dose: 400.0 mg/kg/injection, schedule: Q01DX009 (ip), vehicle: saline): 94 % of control and 111 % of control
T/C (dose: 800.0 mg/kg/injection, schedule: Q01DX009 (ip), vehicle: saline with Tween-80): 114 % of control and 111 % of control
T/C (dose: 800.0 mg/kg/injection, schedule: Q01DX009 (ip), vehicle: saline): 104 % of control and 105 % of control
T/C (dose: 1600.0 mg/kg/injection, schedule: Q01DX009 (ip), vehicle: saline with Tween-80): 93 % of control and 101 % of control

O=P1(NCCCl)OCCCN1CCCl (stereo unspecified)
T/C (dose: 538.0 mg/kg/injection, schedule: Q01DX001 (ip), vehicle: saline): 153 % of control

CCCCCCCCCCCCCC(=O)OC12CC(C)C3(O)C(C=C(CO)C(O)C4(O)C(=O)C(C)=CC43)C1C2(C)C (stereo unspecified)
T/C (dose: 62.5 micrograms/kg/injection, schedule: Q01DX009 (ip), vehicle: acetone): 103 % of control
T/C (dose: 125.0 micrograms/kg/injection, schedule: Q01DX009 (ip), vehicle: acetone): 98 % of control
T/C (dose: 250.0 micrograms/kg/injection, schedule: Q01DX009 (ip), vehicle: acetone): 88 % of control
T/C (dose: 500.0 micrograms/kg/injection, schedule: Q01DX009 (ip), vehicle: acetone): 94 % of control

COc1ccc2c(c1)CCC(c1ccccc1)=C2c1ccc(OCCN2CCCC2)cc1
T/C (dose: 12.0 mg/kg/injection, schedule: Q01DX005 (ip), vehicle: Klucel (hydroxypropylcellulose) (HPC)): 104 % of control and 110 % of control
T/C (dose: 24.0 mg/kg/injection, schedule: Q01DX005 (ip), vehicle: Klucel (hydroxypropylcellulose) (HPC)): 97 % of control and 102 % of control
T/C (dose: 48.0 mg/kg/injection, schedule: Q01DX005 (ip), vehicle: Klucel (hydroxypropylcellulose) (HPC)): 104 % of control and 108 % of control
T/C (dose: 96.0 mg/kg/injection, schedule: Q01DX005 (ip), vehicle: Klucel (hydroxypropylcellulose) (HPC)): 96 % of control

Nc1nc(F)nc2c1ncn2C1OC(COP(=O)(O)O)C(O)C1O (stereo unspecified)
T/C (dose: 60.0 mg/kg/injection, schedule: Q01DX009 (ip), vehicle: saline): 102 % of control
T/C (dose: 90.0 mg/kg/injection, schedule: Q01DX009 (ip), vehicle: saline): 111 % of control
T/C (dose: 134.0 mg/kg/injection, schedule: Q01DX009 (ip), vehicle: saline): 119 % of control
T/C [11]: 205 % of control

CCCCCCC(=O)O[C@H]1CC[C@H]2[C@@H]3CCC4=CC(=O)CC[C@]4(C)[C@H]3CC[C@]12C
T/C (dose: 8.0 mg/kg/injection, schedule: Q01DX009 (ip), vehicle: saline + alcohol): 122 % of control and 103 % of control
T/C (dose: 16.0 mg/kg/injection, schedule: Q01DX009 (ip), vehicle: saline + alcohol): 118 % of control and 105 % of control
T/C (dose: 32.0 mg/kg/injection, schedule: Q01DX009 (ip), vehicle: saline + alcohol): 120 % of control and 102 % of control
T/C (dose: 64.0 mg/kg/injection, schedule: Q01DX009 (ip), vehicle: saline + alcohol): 114 % of control and 100 % of control
T/C (dose: 128.0 mg/kg/injection, schedule: Q01DX009 (ip), vehicle: saline + alcohol): 118 % of control and 112 % of control

CN(Cc1cnc2nc(N)nc(N)c2n1)c1ccc(C(=O)N[C@@H](CCC(=O)O)C(=O)O)cc1
T/C (dose: 0.38 mg/kg/injection, schedule: Q01DX009 (ip), vehicle: olive oil, sesame oil, peanut oil): 110 % of control
T/C (dose: 0.38 mg/kg/injection, schedule: Q01DX009 (ip), vehicle: saline): 110 % of control
T/C (dose: 0.75 mg/kg/injection, schedule: Q01DX009 (ip), vehicle: sodium bicarbonate): 112 % of control
T/C (dose: 0.75 mg/kg/injection, schedule: Q01DX009 (ip), vehicle: suspension in saline): 123 % of control and 106 % of control
T/C (dose: 1.2 mg/kg/injection, schedule: Q04DX003 (ip), vehicle: saline): 105 % of control
T/C (dose: 1.5 mg/kg/injection, schedule: Q01DX009 (ip), vehicle: sodium bicarbonate): 112 % of control
T/C (dose: 1.5 mg/kg/injection, schedule: Q01DX009 (ip), vehicle: suspension in saline): 96 % of control and 100 % of control
T/C (dose: 2.3 mg/kg/injection, schedule: Q01DX009 (ip), vehicle: sodium bicarbonate): 112 % of control
T/C (dose: 2.3 mg/kg/injection, schedule: Q01DX009 (ip), vehicle: suspension in saline): 113 % of control and 103 % of control
T/C (dose: 2.3 mg/kg/injection, schedule: Q04DX003 (ip), vehicle: saline): 100 % of control
T/C (dose: 3.4 mg/kg/injection, schedule: Q01DX009 (ip), vehicle: sodium bicarbonate): 116 % of control
T/C (dose: 3.4 mg/kg/injection, schedule: Q01DX009 (ip), vehicle: suspension in saline): 120 % of control and 122 % of control
T/C (dose: 4.6 mg/kg/injection, schedule: Q04DX003 (ip), vehicle: saline): 110 % of control
T/C (dose: 9.2 mg/kg/injection, schedule: Q04DX003 (ip), vehicle: saline): 100 % of control
T/C (dose: 18.4 mg/kg/injection, schedule: Q04DX003 (ip), vehicle: saline): 115 % of control
T/C (dose: 36.8 mg/kg/injection, schedule: Q04DX003 (ip), vehicle: saline): 95 % of control
